Reference: patent US20190076406A1, “METHODS AND COMPOSITIONS FOR TREATING CONDITIONS ASSOCIATED WITH ANGIOGENESIS USING A VASCULAR ADHESION PROTEIN-1 (VAP-1) INHIBITOR” (MASSACHUSETTS EYE & EAR INFIRMARY, priority 2007, published 2019)

Columns and labels:
[1] = tested on: IL-1β-induced corneal lymphangiogenesis in BALB/c mice; assay: IL-1β-induced corneal lymphangiogenesis (LYVE-1 stain); assay type: in vivo, mouse; settings: IL-1β pellet; i.p. administration; vs vehicle
Procedure: BALB/c mice were anesthetized by intrapcritoneal (i.p.) injection of pentobarbital sodium (60 mg/kg). Hydron pellets (0.3 μl) containing 30 ng mouse IL-1β (401-ML; R&D Systems) were prepared and implanted into the corneas. Pellets were positioned 1 mm from the corneal limbus. Implanted eyes were treated with Bacitracin ophthalmic ointment (E. Fougera & Co.) to prevent infection.
To block VAP-1, mice received daily i.p. injections of a specific VAP-1 inhibitor, Compound II (R-tech Ueno Ltd., Tokyo, Japan) as described above. A daily dose of 0.3 mg/kg was administered at day 0 and continued until the sixth day after implantation. Two, four and six days after implantation, digital images of the corneal vessels were obtained and recorded using OpenLab software version 2.2.5 (Improvision Inc.) with standardized illumination and contrast and were saved onto disks. The quantitative analysis of new vessel growth in the mouse corneas was performed using Scion Image software (version 4.0.2; Scion Corp.).
Eyes were enucleated and fixed with 4% paraformaldehyde for one hour at 4° C. For whole-mount preparation, the corneas were exposed by removing other portions of the eye (i.e. iris, sclera, retina, and conjunctiva). After washing with PBS, tissues were placed in methanol for 20 minutes. […]

[2] = tested on: laser-induced CNV in Brown-Norway rats; assay: Laser-induced CNV, lesion size in choroidal flatmounts; assay type: in vivo, rat; settings: 0.3 mg/kg BW daily i.p., mean±SEM
Procedure: (§1) Brown-Norway rats were anesthetized with 0.2-0.3 ml of a 50:50 mixture of 100 mg/ml Ketamine and 20 mg/ml Xylazine. Pupils were dilated with 5.0% Phenylephrine and 0.8% Tropicamide. CNV was induced with a 532 nm laser (Oculight GLx, Iridex, Mountain View, Calif.). Six laser spots (150 mW, 100 μm, 100 msec) were placed in each eye using a slit-lamp delivery system and a cover glass as a contact lens. Production of a bubble at the time of laser confirmed the rupture of the Bruch's membrane.
(§2) To block VAP-1, a specific VAP-1 inhibitor, Compound II described above, was used (R-tech Ueno, Ltd., Tokyo, Japan). After laser injury, the inhibitor (0.3 mg/kg BW) was administered to the animals by daily i.p. injections. As a control, some animals received the same regimen for the vehicle solution alone.
One week or two weeks after laser injury and treatment with VAP-1 inhibitor or vehicle, the size of CNV lesions was quantified using choroidal flat mounts. Briefly, rats were anesthetized and perfused through the left ventricle with 20 ml PBS followed by 20 ml of 5 mg/ml fluorescein labeled dextran (FITC-dextran; MW=2×106, SIGMA) in 1% gelatin. The eyes were enucleated and fixed in 4% paraformaldehyde for 3 hours. The anterior segment and retina were removed from the eyecup. […] The average size of the CNV lesions was then determined and used for the evaluation.

MAO-B = target: T1, MAO-B (Homo sapiens, UniProt P27338); assay: IC50 against MAO-B; assay type: biochemical
T1 sequence (P27338 1-520): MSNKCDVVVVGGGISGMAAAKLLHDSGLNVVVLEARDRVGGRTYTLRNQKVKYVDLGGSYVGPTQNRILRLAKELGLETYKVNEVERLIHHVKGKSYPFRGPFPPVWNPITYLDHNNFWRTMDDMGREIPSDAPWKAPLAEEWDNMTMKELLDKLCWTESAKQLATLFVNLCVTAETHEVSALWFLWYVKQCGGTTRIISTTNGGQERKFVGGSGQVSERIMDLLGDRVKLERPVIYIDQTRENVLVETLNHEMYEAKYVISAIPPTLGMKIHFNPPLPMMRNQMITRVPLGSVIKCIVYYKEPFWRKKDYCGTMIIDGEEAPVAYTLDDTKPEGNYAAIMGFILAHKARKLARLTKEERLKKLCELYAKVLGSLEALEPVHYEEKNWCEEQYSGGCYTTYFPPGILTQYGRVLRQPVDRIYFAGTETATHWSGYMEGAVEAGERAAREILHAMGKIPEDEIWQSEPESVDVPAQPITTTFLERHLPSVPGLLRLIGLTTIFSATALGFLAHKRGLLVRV

[3] = tested on: laser-induced CNV in Brown-Norway rats; assay: Laser-induced CNV, fluorescein angiography leakage grading; assay type: in vivo, rat; settings: day 7 after laser injury, 0.3 mg/kg daily i.p., n=12
Procedure: as §1, §2
Seven days after laser injury, vascular leakage from the CNV lesions was assessed using fluorescein angiography (FA), as described previously (Zambarakji et al. (2001) IOVS 42: 1553-60). Briefly, FA was performed in anesthetized animals from VAP-1 inhibitor- or vehicle-treated groups, using a digital fundus camera (Model TRC 50 IA; Topcon, Paramus, N.J.). Fluorescein injections were performed intraperitoneally (0.2 ml of 2% fluorescein; Akorn, Decatur, Ill.).
The Grade-IIB lesions were defined as clinically significant, as described previously.

IC50 (MAO-B): > 10 µM
Structure (SMILES): CC(=O)Nc1nc(CCc2ccc(NC(=N)NN)cc2)c(Cc2ccc(S(C)(=O)=O)cc2)s1 [Compound II]
growth of lymphatic vessels in cornea [1]: reduced growth of lymphatic vessels
CNV size ([2]; 7 days after laser injury, n=7): 14,536±2175 μm^2
CNV size ([2]; fourteen days after laser injury, n=10 eyes, not significant vs vehicle (p=0.5)): 23,992±1437 μm^2
incidence of clinically significant CNV lesions graded as IIB [3]: 41.8%
